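The compound was tested at five concentrations on cells cultured in 96-well plates, with a 48-hour exposure period. Abbreviation: GI50, concentration required for 50% inhibition of growth. The concentration for full growth arrest is given as TGI.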
Key:
Assay in all cases: growth of human tumour cells (NCI), 48 h
[1] = system: MOLT-4 leukemia
[2] = system: NCI-H460 lung
[3] = system: HOP-62 NSCLC
[4] = system: SK-MEL-5 melanoma
[5] = system: HL-60(TB) leukemia
[6] = system: NCI-H522 lung
[7] = system: ACHN renal
[8] = system: EKVX NSCLC
[9] = system: NCI-H226 lung
[10] = system: BT-549 breast

Row | Structure (SMILES) | TGI [1] | TGI [2] | TGI [3] | TGI [4] | TGI [5] | TGI [6] | TGI [7] | TGI [8] | TGI [9] | GI50 [9] | GI50 [1] | GI50 [2] | GI50 [3] | GI50 [4] | GI50 [5] | GI50 [6] | GI50 [7] | GI50 [8] | TGI [10]
1 | CNS(=O)(=O)NN(C)S(=O)(=O)c1ccc(C)cc1 | > 100 µM | > 100 µM | > 100 µM | > 100 µM | > 100 µM | > 100 µM | > 100 µM | > 100 µM |  |  |  |  |  |  |  |  |  |  | 
2 | COc1cc(-c2[nH]ncc2CCCC(=O)Nc2ccccc2[N+](=O)[O-])ccc1O | > 100 µM |  | > 100 µM | > 100 µM | > 100 µM | > 100 µM | > 100 µM | > 100 µM | > 100 µM |  |  |  |  |  |  |  |  |  | 
3 | COc1ccc(Nc2nc3c(N)cc(C(F)(F)F)cc3nc2-c2ccccc2)cc1 | > 100 µM | > 100 µM | > 100 µM | > 100 µM | > 100 µM | > 100 µM | > 100 µM | > 100 µM | > 100 µM |  |  |  |  |  |  |  |  |  | 
4 | COc1ccccc1NS(=O)(=O)c1cc(C(C)(C)C)ccc1OCCOc1ccc(C(C)(C)C)cc1S(=O)(=O)Nc1ccccc1OC | > 100 µM | > 100 µM | > 100 µM | > 100 µM | > 100 µM |  | > 100 µM | > 100 µM | > 100 µM |  |  |  |  |  |  |  |  |  | 
5 | CCCCCNC(=O)C1C(=O)N(CCCCC)C(=O)/C1=N\N (configuration not stated) | > 100 µM | > 100 µM | > 100 µM | > 100 µM | > 100 µM | > 100 µM | > 100 µM | > 100 µM |  |  |  |  |  |  |  |  |  |  | 
6 | COc1ccc(C(=O)Nc2ccccc2)cc1[N+](=O)[O-] | > 100 µM | > 100 µM | > 100 µM | > 100 µM |  | > 100 µM |  | > 100 µM | > 100 µM |  |  |  |  |  |  |  |  |  | 
7 | Nc1ncn([C@@H]2C=C(CO)C(O)C2O)c(=O)n1 (some centres not stated) | > 100 µM | > 100 µM | > 100 µM | > 100 µM | > 100 µM | > 100 µM | > 100 µM | > 100 µM | > 100 µM |  |  |  |  |  |  |  |  |  | 
8 | Cc1ccc(S(=O)(=O)OC(C=O)C(O)C(O)COC(c2ccccc2)(c2ccccc2)c2ccccc2)cc1 (configuration not stated) | 46.5 µM | 26.9 µM | 30.8 µM | 28.9 µM |  | 26.3 µM | 28.7 µM | 34.5 µM | 29.4 µM |  |  |  |  |  |  |  |  |  | 
9 | CCOc1ccc(NC(=O)/C(=C/c2ccccc2)C(C)=O)cc1 | 19.5 µM | 30.9 µM | 30.3 µM | 25.6 µM | 9.66 µM | 7.66 µM | 35.3 µM | 35.4 µM | 32.4 µM |  |  |  |  |  |  |  |  |  | 
10 | Cc1ccc(NC(=O)CCC(=O)C2CC(=O)CCC2=O)cc1C (configuration not stated) | > 100 µM | > 100 µM | > 100 µM | > 100 µM | > 100 µM |  | > 100 µM | > 100 µM | > 100 µM |  |  |  |  |  |  |  |  |  | 
11 | COC(=O)CC(CC(=O)C(=O)OC)C(=O)OC (configuration not stated) | > 100 µM | > 100 µM | > 100 µM | > 100 µM | > 100 µM |  | > 100 µM | > 100 µM | > 100 µM |  |  |  |  |  |  |  |  |  | 
12 | COC12c3ccccc3-c3ccccc3C1[C@@H](C(=O)O)[C@H]2C(=O)O (some centres not stated) | > 10 µM | > 10 µM | > 10 µM | > 10 µM | > 10 µM | > 10 µM | > 10 µM | > 10 µM | > 10 µM |  |  |  |  |  |  |  |  |  | 
13 | CC1(C)CC(C2CC(C)(C)CC(C)(C)[C@H]2O)[C@@H](O)C(C)(C)C1 (some centres not stated) | > 100 µM | > 100 µM |  | > 100 µM | > 100 µM | > 100 µM | > 100 µM | > 100 µM | > 100 µM |  |  |  |  |  |  |  |  |  | 
14 | Cn1cccc1C1CC(=O)N(CCC[Se]C#N)C1=O (configuration not stated) | 7.43 µM | 5.93 µM | 3.77 µM | 4.05 µM | 4.68 µM | 4.04 µM | 4.4 µM | 4.46 µM | 4.3 µM | 1.62 µM | 2.16 µM | 2.05 µM | 1.88 µM | 1.96 µM | 2.11 µM | 1.87 µM | 2.11 µM | 1.93 µM | 
15 | O=c1[nH]cnc2c1nnn2C1C=C(CO)C(O)C1O (configuration not stated) | > 100 µM | > 100 µM | > 100 µM | > 100 µM |  |  | > 100 µM | > 100 µM | > 100 µM |  |  |  |  |  |  |  |  |  | 
16 | COC1C2c3ccccc3C(C#N)(Cc3ccc4c(c32)OCO4)N1C(=O)c1ccccc1 (configuration not stated) | > 100 µM | > 100 µM | > 100 µM | 31.5 µM | > 100 µM | > 100 µM | > 100 µM | > 100 µM | 85.9 µM |  |  |  |  |  |  |  |  |  | 
17 | CCN1N=CSC12C(=O)N(c1ccccc1)C(=O)N2c1ccccc1 (configuration not stated) | > 100 µM | > 100 µM | > 100 µM | > 100 µM | > 100 µM | > 100 µM | > 100 µM | > 100 µM | > 100 µM |  |  |  |  |  |  |  |  |  | 
18 | O=C1/C(=C/c2ccccc2Cl)COc2ccccc21 | 68.1 µM | 43.6 µM | 35 µM |  | 58 µM | 30.5 µM | 34.6 µM | 29.7 µM |  |  |  |  |  |  |  |  |  |  | 
19 | COC(=O)Oc1nn(C(=O)OC)c(=O)c2ccccc12 (tested in a mixture with another compound) | > 100 µM | > 100 µM | > 100 µM | > 100 µM | > 100 µM | > 100 µM | > 100 µM | > 100 µM | > 100 µM |  |  |  |  |  |  |  |  |  | 
20 | COC(=O)C1(C)CCc2c(ccc3ccccc23)C1=O (configuration not stated) | > 100 µM | > 100 µM | > 100 µM | 35.9 µM | > 100 µM | 57.3 µM | > 100 µM | > 100 µM |  |  |  |  |  |  |  |  |  |  | 64 µM
21 | NC(=NCc1ccccc1)N/N=C\c1ccnc2ccccc12 | 46 µM | 31 µM | 32.1 µM | 20 µM | 36.4 µM |  | 32 µM | 33.1 µM | 38.6 µM |  |  |  |  |  |  |  |  |  | 18.6 µM
22 | CC(=O)[CH-]C(=O)c1ccccc1.CC(=O)[CH-]C(=O)c1ccccc1.[O-]Cc1cccs1.[O-]Cc1cccs1.[Ti+4] | > 100 µM | > 100 µM | > 100 µM | > 100 µM | > 100 µM | > 100 µM | > 100 µM | > 100 µM | > 100 µM | 82.3 µM | > 100 µM | 29.4 µM | > 100 µM | > 100 µM | 4.26 µM | 54.2 µM | > 100 µM | 37.4 µM | 

Source: PubChem BioAssay (NCI)
